From publication PMC7822874, “Chemoprotective antimalarials identified through quantitative high-throughput screening of Plasmodium blood and liver stage parasites” (Scientific Reports, 2021)
Like-named read-outs stand apart in the source and are kept apart here.

Key:
[1] = system: P. berghei-ANKA-GFP-LucCON liver stage parasites in HepG2-A16-CD81EGFP cells; assay: P. berghei liver stage Pb-Luc assay, Method 1 (UCSD, 1536-well); type: cell-based, Plasmodium berghei; settings: Plasmodium berghei, 48 h, P. berghei liver stage, average of 2 wells on a 1536 well plate; for activity at 1 µM: 1 µM compound treatment (10 mM stocks); for activity at 3 µM: 3 µM compound treatment (10 mM stocks)
[2] = system: HepG2-A16-CD81EGFP cells; settings: average of 2 wells; for HepG2 1uM growth rep1 / HepG2 1uM growth rep2: HepG2, 1 µM compound treatment (10 mM stocks); for HepG2 1uM growth rep1 / HepG2 3uM growth rep1: replicate 1, normalized; for HepG2 1uM growth rep2 / HepG2 3uM growth rep2: replicate 2, normalized; for HepG2 3uM growth rep1 / HepG2 3uM growth rep2: HepG2, 3 µM compound treatment (10 mM stocks)
[3] = system: Plasmodium falciparum Dd2 asexual blood stage parasites; assay: microbe, parasite or virus in culture; set-up: species or system Plasmodium falciparum Dd2 in human erythrocytes; single determination (one 11-point concentration-response curve); settings: Plasmodium falciparum, DD2, Erythrocyte, 72 h; read-out: AC50
[4] = replicate 1, normalized, read-out: PbLuc 1uM growth rep1
[5] = replicate 2, normalized, read-out: PbLuc 1uM growth rep2
[6] = replicate 1, normalized, read-out: PbLuc 3uM growth rep1
[7] = replicate 2, normalized, read-out: PbLuc 3uM growth rep2

| Structure (SMILES) | activity at 1 µM [1, 4] [%] | activity at 1 µM [1, 5] [%] | activity at 3 µM [1, 6] [%] | activity at 3 µM [1, 7] [%] | HepG2 1uM growth rep1 [2] [%] | HepG2 1uM growth rep2 [2] [%] | HepG2 3uM growth rep1 [2] [%] | HepG2 3uM growth rep2 [2] [%] | AC50 [3] [µM] |
| --- | --- | --- | --- | --- | --- | --- | --- | --- | --- |
| O=C(Nc1ccc(S(=O)(=O)N2CCOCC2)cc1)c1cc(-c2cc(Cl)ccc2O)n[nH]1 [MLS000778989-01] | 131 | 90 | 37 | 31 | 107 | 100 | 70 | 76 | 2.66 |
| COc1cccc(NC(=O)CN(C)C(=O)c2ccc(-c3cccc(C(F)(F)F)c3)o2)c1 [MLS001071804-01] | 153 | 125 | 107 | 104 | 105 | 98 | 84 | 96 | 0.596 |
| COc1ccc2nc(N3CCN(C(=O)c4ccc([N+](=O)[O-])o4)CC3)sc2c1 [MLS001234236-01] | 100 | 81 | 91 | 103 | 91 | 90 | 89 | 89 | 4.73 |
| O=C(Nc1ccc(Nc2ccncc2)cc1)c1ccc(Nc2ccnc3ccc([N+](=O)[O-])cc23)cc1 [MLS000766132-01] | 125 | 103 | 94 | 98 | 92 | 91 | 89 | 92 | 0.75 |
| COc1cccc2sc(N3CCN(C(=O)c4ccc([N+](=O)[O-])o4)CC3)nc12 [MLS001234267-01] | 111 | 94 | 69 | 79 | 103 | 96 | 94 | 93 | 4.73 |
| Cc1ccc(-c2c(C(=O)N/N=C/c3cccc(Cl)c3)nnn2-c2nonc2N)cc1 [MLS001139410-01] | 143 | 123 | 105 | 91 | 90 | 91 | 90 | 94 | 0.237 |
| COc1cccc(-c2c(C#N)c(N)nc3c2c(C)nn3-c2ccccc2)c1O [MLS001214341-01] | 118 | 95 | 106 | 118 | 104 | 95 | 90 | 91 | 1.5 |
| CC(C)CCN(CCC(C)C)CC(O)Cn1c2ccccc2c(=O)c2ccccc21 (stereo not drawn) [MLS001030199-01] | 128 | 103 | 76 | 87 | 105 | 96 | 84 | 94 | 1.88 |
| O=C(c1ccc([N+](=O)[O-])o1)N1CCN(c2nc3c(Cl)cccc3s2)CC1 [MLS001234208-01] | 67 | 72 | 36 | 52 | 103 | 93 | 86 | 94 | 4.22 |
| COc1cccc(C2C3=C(N=c4sc(=Cc5ccccc5O)c(=O)n42)c2ccccc2CC3)c1OC (stereo not drawn) [MLS000580951-01] | 115 | 99 | 96 | 91 | 91 | 93 | 90 | 96 | 2.99 |
| CCOC(=O)c1sc2nc3c(SCCC#N)cc(C(=O)c4cc(F)ccc4O)cn3c(=O)c2c1C [MLS000393119-01] | 107 | 121 | 76 | 92 | 91 | 92 | 89 | 93 | 1.68 |
| COc1ccc2[nH]c(C)c(CCN(Cc3cccs3)C(S)=Nc3ccccc3)c2c1 [MLS000529828-01] | 145 | 108 | 101 | 128 | 91 | 90 | 85 | 88 | 2.66 |
| CCCC(C)C(=O)Nc1ncc(S(=O)(=O)c2ccc([N+](=O)[O-])cc2)s1 (stereo not drawn) [MLS001034555-01] | 109 | 117 | 105 | 136 | 95 | 92 | 93 | 94 | 5.96 |
| Oc1c(Cl)cc(Cl)cc1CN1CCN(Cc2ccccc2)CC1 [MLS000106505-01] | 108 | 103 | 88 | 103 | 105 | 94 | 90 | 94 | 0.668 |
| CN(C)Cc1c(O)ccc2oc(Cc3ccccc3)cc12 [MLS000039159-01] | 98 | 102 | 63 | 108 | 108 | 93 | 87 | 92 | 0.422 |
| CCOC(=O)C1CCN(C(=O)c2cc(C(C)(C)C)nn2Cc2ccccc2)CC1 [MLS000860456-01] | 119 | 98 | 89 | 96 | 105 | 95 | 88 | 93 | 4.73 |
| Cc1cc(N2CCN(C3CCCC3)CC2)n2c(nc3ccccc32)c1C#N [MLS000039270-01] | 103 | 109 | 75 | 112 | 91 | 87 | 89 | 90 | 1.06 |
| Cc1cc(C)n(-c2nnc(N3CCN(c4ccccc4)CC3)nn2)n1 [MLS000695202-01] | 122 | 82 | 91 | 76 | 99 | 95 | 90 | 98 | 0.596 |
| CCN(CC)CCN1C(=O)c2ccccc2NC1c1ccc(Br)cc1 (stereo not drawn) [MLS000723891-01] | 82 | 70 | 13 | 21 | 103 | 94 | 84 | 91 | 1.5 |
| N#Cc1c(N2CCN(c3ccc(F)cc3)CC2)nc(N)c2c(N)nc3c(c12)CC(=O)N3C1CC1 [MLS001003889-01] | 114 | 88 | 44 | 56 | 108 | 97 | 85 | 94 | 0.668 |
| CC(NCc1ccccc1O)C12CC3CC(CC(C3)C1)C2 (stereo not drawn) [MLS001173343-01] | 106 | 90 | 70 | 88 | 109 | 103 | 93 | 102 | 0.0944 |
| C/C(=N\Nc1nc(-c2ccccc2O)nc2ccccc12)c1ccccc1 [MLS000714167-01] | 134 | 124 | 108 | 121 | 91 | 94 | 91 | 97 | 0.75 |
| COc1ccc(-n2nc(C(=O)NCC(=O)N3CCN(c4ccccc4OC)CC3)c3ccccc3c2=O)c(OC)c1 [MLS000936211-01] | 82 | 118 | 90 | 112 | 89 | 88 | 92 | 89 | 2.11 |
